The test system of assay [1] is cassette exon / GA/GU iExon inclusion, HEK293 cells, U1C KD. As to the kind of experiment: RNA-seq splicing analysis, compound dose response, U1C knockdown. In kind it is cell-based, human. The source says: (§1) Skipped exons are highly enriched for noncanonical 5′ ss sequences (on either the intronic or exonic side), which account for 90% of skipped exons (Supplementary Fig. 8C). For example, among skipped exons with a canonical exonic 5′ ss sequence, 74% contain noncanonical intron sequence. These observations are consistent with the previous published role for U1C stabilization of the U1 snRNA-pre-mRNA duplex at the 5′ ss[25]–[28]. […] We will refer to these as class I exons for clarity in later discussion.
(§2) We next examined the effect of U1C knockdown on compound-mediated splicing. […] We next used the complete dose response to calculate the effective concentration at which deltaPSIcompound-DMSO is 30 (EC-dPSI30).
(§3) HEK293T cells were grown in DMEM media with 10% FBS. 500,000 cells in 1.75 mL of media were plated into a 6-well plate for approximately 6 h. Either siRNA negative control (ThermoFisher Silencer^TM Negative control #2, AM4613) or U1C siRNA (ThermoFisher Silencer^TM Select Pre-designed siRNA, S13225) were transfected for a final concentration of 25 nM using Invitrogen Lipofectamine RNAiMax (13778-150). In brief, 10 μL 5 μM siRNA was added to 115 μL of OptiMEM, while 5 μL Lipofectamine added to 120 μL OptiMEM for 5 minu before mixing the solutions and incubating for 20 min. 250 μL of Lipofectamine:siRNA solution was gentle added to the 1.75 mL cells. After 24 h post-transfection, cells were treated with 10 μL compound resuspended in DMSO. […] Each compound-treated experimental condition was treated and collected in duplicate, while four DMSO only treated samples per siRNA transfection were collected. RNA was isolated using KingFisher^TM Apex instrument and the MagMAX™ mirVana™ Total RNA Isolation Kit (A27828) by Thermo Fisher according to manufacturer’s protocol. Isolated RNA was submitted to Admera Health for library preparation (polyA selected, stranded) and mRNA-sequencing and >20 M 150 bp pair-end reads were returned.
RNAseq and splicing analysis were described earlier using DEDseq (https:// github.com/liwc01/DEDSeq[18]) with minor modifications. RNA sequencing reads were mapped to human genome (hg19) using STAR (version 2.7.10b); only uniquely mapped reads (with MAPQ > 10) with <5 nt/100 nt mismatches and properly paired reads were used. For splicing analysis, all junction reads (read with a gap in alignment indicating splicing) were used, including the ones mapped to unannotated splice sites. Reads were counted for different exons (for cassette exon [CE]) or exonic regions (for A5′ss or A3′ss). For each splicing event, a percent-spliced-in (PSI) value was calculated using the percent of average read number supporting the inclusion among all reads supporting either the inclusion or the exclusion. A minimum of 10 for the denominator of PSI calculation was required. Otherwise, a “NA” value would be generated. PSI values for biological replicates were averaged, and the PSI difference between the two treatment groups was calculated. For a statistical test, a 2 × 2 read counts table was made for each event, with rows for reads supporting inclusion or exclusion, and columns for the two comparing sample groups. […] For biological replicates, each pair of the testing and control sample was analyzed by Fisher’s exact test and the geometric mean of all P-values was reported as a final P-value. […] Potency of splicing modulator was determined by plotting dPSI and identifying the concentration at which the change in PSI reached 30% and reported as EC_dPSI30.

Assay [2] deals with T1, U1 snRNP + FOXM1 5' ss oligo (Homo sapiens, UniProt P09234).
T1 construct: host or cells: either HeLa-S3 U1A-HTP cells (native, as F1) or E. coli proteins (reconstituted, as F2)
As to the kind of experiment: FP: U1 snRNP binding to FOXM1 5' ss oligo (Supplementary Fig. 2). As for the experimental part:
All of 5′-FAM labeled RNA oligos used in this study were synthesized and purified by IDT (USA). Fluorescence polarization (FP) assays were performed in binding buffer (20 mM HEPES pH 7.5, 1 mM MgCl2, 200 mM KCl, 0.01% TritonX-100, 0.1%PEG3350, 2%DMSO) at room temperature using a Envision HTS Plate Reader system (Revvity). Each reaction system contains 3 nM of FAM-labeled RNA oligo, reconstituted U1 snRNP (or native U1 snRNP, or full-length U1 snRNA, or the 5′end of U1 snRNA) at twofold increasing concentrations, 800 nM (for reconstituted U1 snRNP) or 400 nM (for native U1 snRNP) U1C, different small molecules in DMSO (10 μM unless otherwise stated). The equilibrium dissociation constants (Kd) of binding reaction were calculated using the following single-site binding model formula in GraphPad Prism: y=START+(END−START)x/kD+x where x and y represent the concentration of U1 snRNP (or U1 snRNA) and the polarization value measured respectively, START represents the polarization value of protein-free nucleic acid probe, END represents the maximum polarization value when U1 snRNP (or U1 snRNA) binds to the fluorescently labeled 5′ ss oligo. All FP experiments are carried out in two distinct biological replicates and error bars represent the standard deviation.

Assay [3] has as its system cassette exon / GA/GU iExon inclusion, HEK293 cells, scr siRNA. As to the kind of experiment: RNA-seq splicing analysis, compound dose response, scrambled (mock) siRNA. In kind it is cell-based, human.
Description: as §1, §2, §3
RNAseq and splicing analysis were described earlier using DEDseq (https:// github.com/liwc01/DEDSeq[18]) with minor modifications. RNA sequencing reads were mapped to human genome (hg19) using STAR (version 2.7.10b); only uniquely mapped reads (with MAPQ > 10) with <5 nt/100 nt mismatches and properly paired reads were used. For splicing analysis, all junction reads (read with a gap in alignment indicating splicing) were used, including the ones mapped to unannotated splice sites. Reads were counted for different exons (for cassette exon [CE]) or exonic regions (for A5′ss or A3′ss). For each splicing event, a percent-spliced-in (PSI) value was calculated using the percent of average read number supporting the inclusion among all reads supporting either the inclusion or the exclusion. A minimum of 10 for the denominator of PSI calculation was required. Otherwise, a “NA” value would be generated. PSI values for biological replicates were averaged, and the PSI difference between the two treatment groups was calculated. For a statistical test, a 2 × 2 read counts table was made for each event, with rows for reads supporting inclusion or exclusion, and columns for the two comparing sample groups. Fisher’s exact test was used for the statistical tests. For biological replicates, each pair of the testing and control sample was analyzed by Fisher’s exact test and the geometric mean of all P-values was reported as a final P-value. PSI change (deltaPSI) of >10% (or < −10%) and P < 0.001 was used to select splicing events being regulated by the treatment. PSI calculation, Fisher’s exact test were performed using R (4.0.5). 5′ ss composition analysis was performed as described in ref. [25]. Potency of splicing modulator was determined by plotting dPSI and identifying the concentration at which the change in PSI reached 30% and reported as EC_dPSI30.

Assay [4] addresses short RNA duplex of 5' ss (11 nt) and U1 snRNA (11 nt). The settings on record: NMR construct without other U1 snRNP components; read-out: Kd between the compound and the short RNA duplex; cited from earlier work.

These results are taken from paper PMC13500670, “The U1 snRNP protein U1C and Helix H of U1 snRNA are critical for small molecule splicing modulator function” (Nature Communications, 2026).

Regarding `Cc1cn2nc(-c3cc(=O)n4cc(N5CCNC6(CC6)C5)ccc4n3)cc(C)c2n1` [Risdiplam, risdiplam], the “U1CKD Log10 effect” value in assay [1] (Fig. 8C picture, pEC-dPSI30 mock versus U1C KD) is -0.42. The “geomean pEC_dPSI30 for all GA/GU iExons” value in assay [1] (Fig. 8C, U1C KD) amounted to 5.63; in assay [3] (Fig. 8C, mock knockdown, -log10 of compound concentration when dPSI achieves 30%), 6.05. Besides, in assay [2], the “effect on binding between U1 snRNP and FOXM1 5' ss oligo” value is “no effect”. Moreover, in assay [3] (highest dose, mock and U1C KD reach similar saturation), the “saturation PSI of PDXDC1 iExon” value amounted to 40.
Take `Cc1cn2cc(-c3cc(=O)n4cc(N5CCN(C)CC5)ccc4n3)cc(F)c2n1` [SMN-C5]: the Kd in assay [4] is 28 µM.

By Kd is commonly meant the constant that tells how readily two partners part at equilibrium.
